Test results taken from ChEMBL document CHEMBL1201862, “PubChem BioAssay data set” (2004).
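96-well plates; 48 h exposure; 5 concentrations. Endpoints by linear interpolation between flanking doses. Not reached: highest tested concentration assigned. GI50 = concentration required for 50% inhibition of growth.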 The source made the active and inactive calls. Cut-off read from the data, not from the text of the source: active = GI50 up to about 1.1 µM and inactive = higher.

Assays:
Test in all cases: inhibition of tumour cell growth, NCI panel, 48 h
OVCAR-5 = tested on: OVCAR-5
SK-MEL-2 = tested on: SK-MEL-2
HL-60 = tested on: HL-60
SNB-75 = tested on: SNB-75
SF-295 = tested on: SF-295
SNB-19 = tested on: SNB-19
SF-539 = tested on: SF-539
786-0 = tested on: 786-0
A549 = tested on: A549
UO-31 = tested on: UO-31
UACC-62 = tested on: UACC-62
SK-OV-3 = tested on: SK-OV-3
U-251 = tested on: U-251
COLO 205 = tested on: COLO 205
M14 = tested on: M14

Measured: GI50

CCOC(=O)Cn1c2ccccc2c(=O)c2cc(C)c(C)c(C#N)c21
inactive: OVCAR-5 > 100 µM | SK-MEL-2 > 100 µM | HL-60 > 100 µM | SNB-75 23.2 µM | SF-295 40.4 µM | SNB-19 > 100 µM | SF-539 > 100 µM | 786-0 > 100 µM | A549 > 100 µM | UO-31 68.5 µM | UACC-62 > 100 µM | SK-OV-3 55.5 µM | U-251 > 100 µM | COLO 205 > 100 µM

O=c1/c(=C/c2ccccc2[N+](=O)[O-])sc2nc3ccccc3n12
inactive: OVCAR-5 > 46.5 µM | SK-MEL-2 20.4 µM | HL-60 41.1 µM | SNB-75 24.5 µM | SF-295 18.8 µM | SNB-19 21.9 µM | SF-539 19.5 µM | 786-0 24.5 µM | A549 30.8 µM | UO-31 > 46.5 µM | UACC-62 64.7 µM | SK-OV-3 > 31.6 µM | U-251 19.9 µM | M14 39.7 µM | COLO 205 26.6 µM

CC(=O)OCC1OC(n2c(=O)n(-c3ccccc3)c(=O)c3cc(Br)cc(Br)c32)C(OC(C)=O)C(OC(C)=O)C1OC(C)=O (stereo not drawn)
inactive: OVCAR-5 > 100 µM | SK-MEL-2 > 100 µM | HL-60 > 100 µM | SNB-75 74.1 µM | SF-295 12 µM | SNB-19 > 100 µM | SF-539 > 100 µM | 786-0 > 100 µM | A549 > 100 µM | UO-31 > 100 µM | UACC-62 > 100 µM | SK-OV-3 > 100 µM | U-251 71 µM | M14 > 100 µM | COLO 205 > 100 µM

Cc1cc2c(cc1C)[n+]([O-])c(C(=O)C/C(=N/NC(=O)c1ccccc1O)C(=O)Nc1ccccc1C(C)C)c(C)[n+]2[O-]
inactive: OVCAR-5 > 100 µM | SK-MEL-2 > 100 µM | HL-60 14.8 µM | SNB-75 88.5 µM | SF-295 > 100 µM | SNB-19 > 100 µM | SF-539 > 100 µM | 786-0 88.1 µM | A549 > 100 µM | UACC-62 68.1 µM | SK-OV-3 > 100 µM | U-251 > 100 µM | M14 > 100 µM | COLO 205 > 100 µM

COc1ccc(-c2oc3cc(O)c(OC)c(O)c3c(=O)c2OC2OC(CO)C(O)C(O)C2O)cc1 (stereo not drawn)
inactive: SK-MEL-2 > 100 µM | HL-60 > 100 µM | SNB-75 > 100 µM | SF-295 > 100 µM | SNB-19 > 100 µM | SF-539 > 100 µM | 786-0 > 100 µM | A549 > 100 µM | UO-31 82 µM | UACC-62 > 100 µM | SK-OV-3 > 100 µM | U-251 > 100 µM | M14 > 100 µM | COLO 205 > 100 µM

COc1cc(/C=C(\C#N)c2ccccc2)cc(OC)c1
inactive: OVCAR-5 55.1 µM | SK-MEL-2 73.6 µM | HL-60 24.3 µM | SF-295 21.9 µM | SNB-19 > 100 µM | SF-539 41.1 µM | 786-0 31.8 µM | A549 28.6 µM | UO-31 29.6 µM | UACC-62 32.4 µM | SK-OV-3 48.2 µM | U-251 28.3 µM | M14 33.8 µM | COLO 205 57.4 µM

CS/C(c1ccccc1)=[N+](/C)[O-]
inactive: OVCAR-5 > 100 µM | SK-MEL-2 > 100 µM | HL-60 > 100 µM | SNB-75 > 64.6 µM | SF-295 > 100 µM | SNB-19 > 100 µM | SF-539 > 100 µM | 786-0 > 100 µM | A549 > 100 µM | UO-31 > 100 µM | UACC-62 > 100 µM | SK-OV-3 > 100 µM | U-251 > 100 µM | M14 > 100 µM | COLO 205 > 43.3 µM

CCOC(=O)N1C2C=C(C)C(C3C(C)C(=O)N31)N(C(=O)c1ccccc1)O2 (stereo not drawn)
inactive: OVCAR-5 > 100 µM | SK-MEL-2 > 100 µM | HL-60 > 100 µM | SNB-75 > 100 µM | SF-295 > 100 µM | SNB-19 > 100 µM | SF-539 > 100 µM | 786-0 > 100 µM | A549 > 100 µM | UO-31 > 100 µM | UACC-62 > 100 µM | SK-OV-3 > 100 µM | U-251 > 100 µM | M14 > 100 µM | COLO 205 > 100 µM

C/C(CC(=O)Nc1ccc(NC(=O)/C(C)=N/NS(=O)(=O)c2ccc(C)cc2)cc1)=N\NS(=O)(=O)c1ccc(C)cc1
inactive: OVCAR-5 > 100 µM | SK-MEL-2 > 100 µM | HL-60 > 100 µM | SNB-75 > 100 µM | SF-295 > 100 µM | SF-539 > 100 µM | 786-0 > 100 µM | A549 > 100 µM | UO-31 > 100 µM | UACC-62 > 100 µM | SK-OV-3 > 100 µM | U-251 > 100 µM | M14 > 100 µM | COLO 205 > 100 µM

C[C@H]1CC[P+](C)(c2ccccc2)C1 (stereo partly drawn)
inactive: OVCAR-5 > 100 µM | SK-MEL-2 > 100 µM | HL-60 > 100 µM | SNB-75 > 100 µM | SF-295 > 100 µM | SNB-19 > 100 µM | SF-539 > 100 µM | 786-0 > 100 µM | A549 > 100 µM | UO-31 > 100 µM | UACC-62 > 100 µM | SK-OV-3 > 100 µM | U-251 > 100 µM | M14 > 100 µM | COLO 205 > 100 µM

Brc1cc2c(cc1Br)CN(c1ccccc1)C2
inactive: OVCAR-5 > 100 µM | SK-MEL-2 > 100 µM | HL-60 > 100 µM | SNB-75 > 100 µM | SF-295 > 100 µM | SNB-19 > 100 µM | SF-539 > 100 µM | 786-0 > 100 µM | A549 > 100 µM | UO-31 > 100 µM | UACC-62 > 100 µM | SK-OV-3 > 100 µM | U-251 > 100 µM | M14 > 100 µM | COLO 205 > 100 µM

NC(CNc1ccc(O)cc1)C(=O)O (stereo not drawn)
inactive: OVCAR-5 > 100 µM | SK-MEL-2 60.4 µM | HL-60 31.5 µM | SNB-75 > 100 µM | SF-295 > 100 µM | SNB-19 > 100 µM | 786-0 16 µM | A549 > 100 µM | UO-31 > 100 µM | UACC-62 20.9 µM | SK-OV-3 > 100 µM | U-251 > 100 µM | M14 80.7 µM | COLO 205 > 100 µM

COC(=O)Cc1nc2ccccc2o1
inactive: OVCAR-5 45.2 µM | SK-MEL-2 65.8 µM | HL-60 12.5 µM | SNB-75 > 100 µM | SF-295 41.1 µM | SNB-19 > 100 µM | SF-539 72.3 µM | 786-0 > 100 µM | A549 74.6 µM | UO-31 > 100 µM | UACC-62 20.2 µM | SK-OV-3 > 100 µM | U-251 83.8 µM | M14 51.6 µM | COLO 205 95.1 µM

O=S1OC(c2ccccc2)(c2ccccc2)C(c2ccccc2)(c2ccccc2)O1
inactive: OVCAR-5 > 100 µM | HL-60 7.96 µM | SNB-75 > 56.4 µM | SF-295 14.1 µM | SNB-19 > 100 µM | SF-539 > 100 µM | 786-0 > 100 µM | A549 40 µM | UO-31 > 29.7 µM | UACC-62 > 100 µM | SK-OV-3 > 100 µM | U-251 25.1 µM | M14 > 100 µM | COLO 205 > 100 µM

CCc1nc2c([nH]1)C(=O)c1ccccc1C2=O
inactive: OVCAR-5 > 100 µM | SK-MEL-2 > 100 µM | HL-60 25.6 µM | SNB-75 > 100 µM | SF-295 45.7 µM | SNB-19 46.2 µM | SF-539 48.9 µM | 786-0 61.4 µM | A549 52.8 µM | UO-31 80.9 µM | UACC-62 29.9 µM | SK-OV-3 > 100 µM | U-251 55.5 µM | M14 46.9 µM

Cc1ccc(Nc2cccc3c2C(=O)c2cccc(Nc4ccc(C)cc4S(=O)(=O)O)c2C3=O)c(S(=O)(=O)O)c1
inactive: SK-MEL-2 > 100 µM | HL-60 > 100 µM | SNB-75 > 100 µM | SNB-19 > 100 µM | SF-539 > 100 µM | 786-0 > 100 µM | A549 > 100 µM | UO-31 > 100 µM | UACC-62 > 100 µM | SK-OV-3 > 100 µM | U-251 > 100 µM | M14 > 100 µM | COLO 205 > 100 µM

c1ccc(C2OC3(CCC[C@H]4C[C@H]43)O[C@H]2c2ccccc2)cc1 (stereo partly drawn)
inactive: OVCAR-5 60.8 µM | SK-MEL-2 21.5 µM | HL-60 19.8 µM | SNB-75 26.5 µM | SF-295 46.3 µM | SNB-19 44.4 µM | SF-539 > 100 µM | 786-0 57 µM | A549 43.2 µM | UO-31 38.7 µM | UACC-62 57.3 µM | SK-OV-3 > 100 µM | U-251 41.1 µM | M14 43.9 µM | COLO 205 24.7 µM

CC1C=CC(O)[C@]2(CO)CC3(CCC12)OCCO3 (stereo partly drawn)
inactive: OVCAR-5 > 100 µM | SK-MEL-2 > 100 µM | HL-60 > 100 µM | SNB-75 > 100 µM | SF-295 > 100 µM | SNB-19 > 100 µM | SF-539 > 100 µM | 786-0 > 100 µM | A549 > 100 µM | UO-31 > 100 µM | UACC-62 > 100 µM | SK-OV-3 > 100 µM | U-251 > 100 µM | M14 > 100 µM

O=C(CC(=O)c1ccccc1)c1ccccc1.O=C(CC(=O)c1ccccc1)c1ccccc1.O=C(CC(=O)c1ccccc1)c1ccccc1.[SiH4]
inactive: OVCAR-5 12.4 µM | HL-60 1.92 µM | SNB-75 10.4 µM | SF-295 4.65 µM | SNB-19 4.74 µM | SF-539 8.67 µM | 786-0 7.74 µM | A549 3.01 µM | UO-31 4.56 µM | UACC-62 3.89 µM | SK-OV-3 5.79 µM | U-251 2.86 µM | M14 6.24 µM | COLO 205 2.21 µM
